What was measured:
Chaetomium globosum = experiment: Poison Plate Assay (fungi, Glucose Agar); assay type: cell-based; settings: Chaetomium globosum ATCC6205, ppm total active ingredient, 27° C., growth evaluated after two weeks, label = % (I-e) + % nano-silver
Experimental: (§1) Test models: • Fungi: to each well of a 24-well microtiter plate, 1000 μl of Glucose Agar (GA: 10 g glucose, 1.5 g K2HPO4, 2 g KH2PO4, 1 g (NH4)2SO4, 0.5 g MgSO4 and 12.5 g agar in 1 liter deionised water) containing the appropriate combination of the test compounds in one of the concentrations of a dose series is added. The nutrient medium is inoculated with the test fungi by adding a spore/mycelium suspension (10 μl) or a small piece of agar from the margin of an actively growing colony and incubated under dark at 27° C. with 70% relative humidity. The growth of the fungi is evaluated after two weeks. • Glucose agar is used here instead of PDA (Potato Dextrose Agar), as an alternative, poorer medium for the fungi, in order to increase the chances of detecting activity in compounds whose mode of action might be circumvented by fungi on a […]). Moreover, a richer organic medium has more potential to complex and inactivate antibacterial silver ions (Lasater et al. 1999, Weissbuch et al. 2002). • Bacteria : to each well of a 24-well microtiter plate, 1000 μL Tryptose Agar (TA, 20 g bacto tryptose agar, 5 g sodium chloride, 1 g bacto dextrose and 15 g agar in l liter deionised water), containing the test compounds in one of the concentrations of a dose series is added. […] Growth is evaluated after five days. […]

Ulocladium atrum = experiment: Poison Plate Assay (fungi, Glucose Agar); assay type: cell-based; settings: Ulocladium atrum IMI214699a, ppm total active ingredient, 27° C., growth evaluated after two weeks, label = % (I-e) + % nano-silver
Experimental: as §1

SMILES: Cc1cc(CC(C)CC(C)(C)C)n(O)c(=O)c1.NCCO (centres unmarked) [100 + 0, piroctone olamine]
- MIC-values (minimum inhibitory concentration) in ppm (Chaetomium globosum): 3.16 ppm
- MIC-values (minimum inhibitory concentration) in ppm (Ulocladium atrum): 3.16 ppm
